Earlier results, collected in patent US6645979B2, “(7-(3-carboxyphenyl)-4-chloroisoquinolin-1-yl)guanidine” (Pfizer Inc., priority 2000, dated 2003).

Target: urinary-type plasminogen activator (uPA, urokinase) (Homo sapiens, UniProt P00749)
Conditions: general statement, no value given

- uPA antagonist potency: potent
Compound: NC(N)=Nc1ncc(Cl)c2ccc(-c3cccc(C(=O)O)c3)cc12 [Compound (I), (7-(3-carboxyphenyl)-4-chloroisoquinolin-1-yl)guanidine]
